Marks after values point to notes of the source that are not given here.
How the values were obtained:
Assay type in all cases: in vivo
Balb/c mice [1] = assay: Leukocyte subpopulations in BALF of rDp2-sensitized mice after local nasal immunotherapy (LNIT); settings: for Eosinophil / Lymphocyte / Macrophage / Neutrophil / Total cell: BALF; for anti-inflammatory effect on airway inflammation: Example 1, BALF inflammatory cells compared to the NS groups
Procedure: Male Balb/c mice were obtained from the National Laboratory Breeding Research Center in Taiwan and were raised in a specific pathogen-free environment. The mice used were between six and eight weeks of age. Groups of six mice were caged separately according to their treatment. Recombinant Dermatophoides pteronyssinus group 2 (rDp2) was prepared as previously described(Tsai J J, et al. Int Arch Allergy Immunol 2000;121:205-10). Dp2 28-40 and Dp2 28-40A were obtained from Dr. Jonathan Lamb (Respiratory Medicine Unit, Edinburgh University, Medical School, Edinburgh, UK) (Verhoef A, and Lamb J R. J Immunol 2000;164:6034-6040). FIP was obtained from Dr. Ko Jiunn-Liang (Institute of Toxicology, Chung Shan Medical University, Taichung, R O C) (J L Ko, et al. Eur. J. Biochem. 1995;228:244-249).
(§1) Mice were immunized by way of an intraperitoneal (IP) injection of 1 μg/0.1 mL rDp2 emulsified in 4.0 mg/0.062mL aluminum hydroxide Al(OH)3 (Whitehall Lab Ltd. Punchbowl, NSW, Australia) on day 0 and day 7. Following immunization, local nasal immunotherapy (LNIT) was conducted daily from day 14 to day 35 with Dp2 28-40, Dp2 28-40A, FIP alone or FIP mixed with either Dp2 28-40 or Dp2 28-40A (FIP, 50 μg/mouse/day; Dp2 peptide, 1 μg/20 μL) in PBS with 10% glycerol. Normal saline (NS) and irrelevant allergen Bt were used as a negative control. […] On day 28, mice were lightly anesthetized with an IP injection of 60 mg/kg of sodium pentobarbital (Sigma Chemical Co., St Louis, Mo., U.S.A.) and inoculated intratracheally (IT) with 1 μg/50 μL of rDp 2 on day 28 and day 35. Two days subsequent to the second IT inoculation, the mice were sacrificed following the assessment of their pulmonary function (FIG. 1).
Subsequent to pulmonary function measurement having been completed, bronchoalveolar lavage (BAL) was performed using the following procedure. BAL fluids were collected with lmL sterile endotoxin-free saline washes of each lung via the trachea for each mouse. BAL cells were washed once with PBS by centrifugation at 200×g at 4° C. Subsequent to washing, the cells were resuspended in RPMI-1640 (Sigma Chemical Co.). The total leukocyte count in BAL fluids was determined using a hemocytometer. The BAL fluids were aspirated and stored at −70° C. until needed for assay purposes. Subsequent to total leukocyte counting, a cytospin preparation of 100 μL BAL fluids (2×10^5 cells/mL) was conducted, the cells being cytocentrifuged directly onto glass slides at 350 r.p.m. for five minutes using a Cytospin 3 cytocentrifuge (Shandon Scientific Limited, Astmoor, Runcorn, UK), and then stained with Liu stain (Tonyar Diagnostic Inc, Taipei & Hien, Taiwan). The differential counts were performed for a total of 200 leukocyte cells.

Balb/c mice [2] = assay: Cytokine producing cells in peripheral blood (flow cytometry) after LNIT; settings: for IL-5/IFN-γ (CD4) / IL-5/IFN-γ (CD8): peripheral blood
Procedure: Male Balb/c mice were obtained from the National Laboratory Breeding Research Center in Taiwan and were raised in a specific pathogen-free environment. The mice used were between six and eight weeks of age. Groups of six mice were caged separately according to their treatment.
as §1
Two-color staining methods were used to analyze IFN-γ and IL-5 expression amongst CD4 cells. Leukocytes derived from peripheral blood (PBL) were stimulated with PMA (50 ng/mL), ionomycin (2 μM) and GolgiStop (Cytofix/Cytoperm Plus Pharmingen San Diego, Calif., U.S.A.) for five hours and then washed twice using PBS. The cells were stained with CD4-PerCP, CD8-FITC or IgG1-FITC (PharMingen) at room temperature (RT) for 30 minutes and then washed. Cells were fixed with cytofix/cytoperm at RT for 30 minutes and then stained with anti-cytokine antibody and IgG2a-PE (PharMingen) at RT for 30 minutes and subsequently washed. Both IgG1-FITC and IgG2a-PE were purchased from the same manufacturer as the anticytokine antibodies and the negative controls. Cells were resuspended in 0.5 mL PBS containing 0.1% w/v sodium azide. Mean fluorescence was measured by means of Becton Diskinson flow cytometry (Becton Diskinson, Calif., U.S.A.). A total of 2,000 cells was analyzed for each sample.

Balb/c mice [3] = assay: Pulmonary function: airway hypersensitivity to methacholine (Penh, barometric plethysmograph) after LNIT; settings: compared to NS; for Penh after methacholine challenge, early phase: Example 1, FIG. 5A, 30 min after rDp2 IT challenge; for Penh after methacholine challenge, late phase: Example 1, FIG. 5B, 24hrs after rDp2 IT challenge
Procedure: as §1
Each mouse was placed inside a barometric plethysmograph (Buxco Electronics, Troy, N.Y.). The plethysmograph has two chambers: one is the main or animal chamber (ID 7.5 cm and 5.5 cm height) and the other is the reference chamber (ID 7.5 cm and 3.5 cm height). A differential pressure transducer was employed to detect the pressure difference between the two chambers. The pressure signal was amplified, digitized via an A/D convert card, and sent to a computer with a BioSystem XA program (Buxco, Electronics, Troy, N.Y.), which sampled and calculated the desired respiratory parameters. These parameters were enhanced pause (Penh), tidal volume, breathing frequency, peak inspiratory flow, peak expiratory flow, end-inspiratory pause, and end-expiratory pause.
Aerosol was generated by placing 5 mL of saline or methacholine (Sigma, 1.56 to 25.00 mg/mL) solution in the cup of an ultrasonic nebulizer (DeVilbiss, Somerset, Pa.). It was delivered via a connecting tube and a three-way connector to the animal chamber of the plethysmograph (Hamelmann E, et al. Am J Respir Crit Care Med. 1997;156:766-75). The median size of the aerosol was approximately 3 μm and the range of the sizes was from 1 to 5 μm, according to the manufacturers information. The aerosol usually filled the chamber within 15-20 sec. At first, each mouse inhaled saline aerosol for 3 min. Then the respiratory parameters were measured for 3 min. Then, inhalation of the saline aerosol was replaced by inhalation of the aerosol of methacholine solution for 3 min. In both cases, the aerosol in the chamber was cleared immediately after the exposure. Respiratory parameters were then measured for 3 min following the inhalation of methacholine. A dose-response curve for methacholine was calculated starting from a low dose of 0.031 mg/dL and moving to a higher dose of 25 mg/dL. There was a 15 min interval between exposures. The percentage changes of Penh obtained from each dose of mechacholine were accumulated area under the curve and the values were calculated as means±SEM. Differences in parameters among groups were analyzed by variance.

[4] = Example 1, LNIT day 14-35, rDp2 IT challenge, mean ± SEM of six animals
[5] = Example 1, percentage of positive stained cells in the PBMC of six mice
[6] = Example 1, ratio of IL-5 to IFN-γ producing CD4 cells
[7] = Example 1, ratio of IL-5 to IFN-γ producing CD8 cells
[8] = Example 2 (FIP study), mean ± SEN of six mice
[9] = Example 2, percentage of total leukocytes in the peripheral blood of six mice

Molecule: Dp2 28-40: Dermatophoides pteronyssinus group 2 (Dp2) epitope peptide, residues 28-40, amino acid sequence ID No. 1 (IIHRGKPFQLEAV; listed as Dermatophoides pteronyssinus)
- Eosinophil (Balb/c mice [1]; [4]): 3.5 ± 0.5* 10^4 cells/mL
- Lymphocyte (Balb/c mice [1]; [4]): 11.8 ± 0.8* 10^4 cells/mL
- Macrophage (Balb/c mice [1]; [4]): 31.0 ± 2.5* 10^4 cells/mL
- Neutrophil (Balb/c mice [1]; [4]): 7.2 ± 1.5* 10^4 cells/mL
- Total cell (Balb/c mice [1]; [4]): 53.3 ± 4.1* 10^4 cells/mL
- anti-inflammatory effect on airway inflammation (Balb/c mice [1]): best anti-inflammatory effect
- CD4^+ (Balb/c mice [2]; [5]): 56.0 percentage
- CD8^+ (Balb/c mice [2]; [5]): 9.8 percentage
- IFN-γ^+/CD4^+ (Balb/c mice [2]; [5]): 27.8 percentage
- IFN-γ^+/CD8^+ (Balb/c mice [2]; [5]): 16.8 percentage
- IL-5^+/CD4^+ (Balb/c mice [2]; [5]): 17.7 percentage
- IL-5^+/CD8^+ (Balb/c mice [2]; [5]): 9.5 percentage
- IL-5/IFN-γ (CD4) (Balb/c mice [2]; [6]): 0.6
- IL-5/IFN-γ (CD8) (Balb/c mice [2]; [7]): 0.6
- Penh after methacholine challenge, early phase (Balb/c mice [3]): significantly decreased
- Penh after methacholine challenge, late phase (Balb/c mice [3]): significantly decreased

Molecule: Dp2 28-40A: altered TCR ligand of Dp2 28-40, residues at positions 34 and 36 substituted by alanine; amino acid sequence ID No. 2 (IIHRGKAFALEAV; listed as Dermatophoides pteronyssinus)
- Eosinophil (Balb/c mice [1]; [4]): 3.0 ± 1.0* 10^4 cells/mL
- Lymphocyte (Balb/c mice [1]; [4]): 14.6 ± 3.3* 10^4 cells/mL
- Macrophage (Balb/c mice [1]; [4]): 38.4 ± 7.2* 10^4 cells/mL
- Neutrophil (Balb/c mice [1]; [4]): 8.2 ± 1.1* 10^4 cells/mL
- Total cell (Balb/c mice [1]; [4]): 65.0 ± 3.2* 10^4 cells/mL
- anti-inflammatory effect on airway inflammation (Balb/c mice [1]): weaker than Dp2 28-40
- CD4^+ (Balb/c mice [2]; [5]): 51.8 percentage
- CD8^+ (Balb/c mice [2]; [5]): 10.7 percentage
- IFN-γ^+/CD4^+ (Balb/c mice [2]; [5]): 11.4 percentage
- IFN-γ^+/CD8^+ (Balb/c mice [2]; [5]): 5.8 percentage
- IL-5^+/CD4^+ (Balb/c mice [2]; [5]): 11.4 percentage
- IL-5^+/CD8^+ (Balb/c mice [2]; [5]): 3.5 percentage
- IL-5/IFN-γ (CD4) (Balb/c mice [2]; [6]): 1.0
- IL-5/IFN-γ (CD8) (Balb/c mice [2]; [7]): 0.6
- Penh after methacholine challenge, early phase (Balb/c mice [3]): significantly decreased
- Penh after methacholine challenge, late phase (Balb/c mice [3]): significantly decreased

B1: FIP: fungal immunomodulatory protein isolated from Flammalina velutipes, amino acid sequence ID No. 3 (protein)
chain: SATSLTFQLAVLVKKIDFDYTPNWGRGTPSSYIDNLTFPKVLTDKKYSYRVVVNGSDLGVESNFAVTPSGGQTINFLQYNKGYGVADTKTIQVFVVIPDTGNSEEYIIAEWKKT
modifications: Flammalina velutipes
- Eosinophil (Balb/c mice [1]; [8]): 6.3 ± 1.3 ×10^4/mL
- Lymphocyte (Balb/c mice [1]; [8]): 13.0 ± 1.8 ×10^4/mL
- Macrophage (Balb/c mice [1]; [8]): 37.0 ± 7.4 ×10^4/mL
- Neutrophil (Balb/c mice [1]; [8]): 9.0 ± 2.4 ×10^4/mL
- Total cell (Balb/c mice [1]; [8]): 65.0 ± 10.5 ×10^4/mL
- airway-inflammation level (cellular component in BALF) (Balb/c mice [1]; Example 2, text summary of Table 3): diminish the airway-inflammation level
- CD4 (Balb/c mice [2]; [9]): 29.1 percentage
- CD8 (Balb/c mice [2]; [9]): 7.0 percentage
- IFN-γ^+/CD4^+ (Balb/c mice [2]; [9]): 13.7 percentage
- IFN-γ^+/CD8^+ (Balb/c mice [2]; [9]): 5.0 percentage
- IL-5^+/CD4^+ (Balb/c mice [2]; [9]): 12.6 percentage
- IL-5^+/CD8^+ (Balb/c mice [2]; [9]): 8.4 percentage
- IL-5/IFN-γ (CD4) (Balb/c mice [2]; Example 2, ratio, CD4 cells): 0.9
- IL-5/IFN-γ (CD8) (Balb/c mice [2]; Example 2, ratio, CD8 cells): 1.7
- penh, early phase (Balb/c mice [3]; Example 2, FIG. 8A, 30 min after rDp2 intratracheal challenge): significantly decreased
- penh, late phase (Balb/c mice [3]; Example 2, FIG. 8B, 24 hr): did not reach a statistically significant level
